Measurements as given in patent US6410011B1, “Gene therapy for restenosis using an adenoviral vector” (priority 1994, dated 2002).

Assays:
[1] = tested on: rabbit aorta VSMC; experiment: Cytotoxic activity of the Ad-RSV-TK/ganciclovir combination on smooth muscle cells in culture, by cell counting; format: cell-based; conditions: ganciclovir alone or Ad-RSV-TK alone
Procedure: The activity of the adenovirus containing the TK gene, prepared in Example 1, was checked on in vitro models of smooth muscle cells. To this end, smooth muscle cells isolated from rat and rabbit aorta were infected with the recombinant adenovirus Ad-RSV-tk and incubated in the presence of ganciclovir. The effect of the Ad-RSV-tk/ganciclovir combination on cell viability is then confirmed by the colorimetric test employing MTT, 3-(4,5-dimethylthiazol-2-yl)-2,5-diphenyl-tetrazolium bromide, according to the technique described by Mosman (J. Immunol. Meth. 65 (1983) 55), or more accurately by cell counting. Briefly, vascular smooth muscle cells (VSMC) are set up in culture by enzymatic digestion of NZW rabbit aorta according to a method adapted from Chamley et al. (Cell Tissue Res. 177: 503-522 1977). The cells are maintained in the presence of 20% of foetal calf serum and used for all the tests (see below) before the tenth passage. […]
In order to measure the cytotoxic activity of the Ad-RSV-TK/ganciclovir combination, rabbit aorta VSMC are incubated in the presence of the adenovirus diluted in culture medium (DMEM, 0.5% FCS). […] Four days after the addition of ganciclovir, the cells are counted (100% cell viability corresponding to cells not transduced with Ad-RSV-TK and not treated with ganciclovir).

[2] = patients treated for viral infection with a non-toxic dose; cited from earlier work

Nc1nc(O)c2ncn(COC(CO)CO)c2n1 [ganciclovir]
cell death with a single agent [1]: neither simple treatment with ganciclovir nor transduction with Ad-RSV-TK per se is associated with cell death
plasma concentrations [2]: above 15 μM
